# Reference: ChEMBL document CHEMBL3124761, “Synthesis and biological evaluation of N,N'-squaramides with high in vivo efficacy and low toxicity: toward a low-cost drug against Chagas disease” (J Med Chem, 2014)
# The source made the active and inactive calls. No cut-off for these calls is given here.
# Legend:
# [1] = Selectivity index, ratio of IC50 for African green monkey Vero cells to IC50 for amastigote stage of Trypanosoma cruzi IRHOD/CO/2008/SN3 infected in African green monkey Vero cells; assay type: toxicity, cell-based; conditions: read-out: Ratio IC50
# [2] = Selectivity index, ratio of IC50 for African green monkey Vero cells to IC50 for epimastigote stage of Trypanosoma cruzi IRHOD/CO/2008/SN3; assay type: toxicity, cell-based; conditions: read-out: Ratio IC50
# Vero = assay: Cytotoxicity against African green monkey Vero cells assessed as cell viability after 72 hrs by propidium iodide/fluorescein diacetate staining-based flow cytometric analysis; conditions: Chlorocebus sabaeus
# Trypanosoma cruzi [3] = assay: Antitrypanosomal activity against amastigote stage of Trypanosoma cruzi IRHOD/CO/2008/SN3 infected in African green monkey Vero cells assessed as parasite growth inhibition after 72 hrs by Giemsa staining-based microscopic analysis; assay type: functional, organism-based; conditions: IRHOD/CO/2008/SN3, Vero
# Trypanosoma cruzi [4] = assay: Antitrypanosomal activity against epimastigote stage of Trypanosoma cruzi IRHOD/CO/2008/SN3 assessed as parasite growth inhibition after 72 hrs by Neubauer hemocytometric chamber analysis; assay type: functional, organism-based; conditions: IRHOD/CO/2008/SN3, 72 h
# Trypanosoma cruzi [5] = assay: Trypanocidal activity against metacyclic trypomastigote stage of Trypanosoma cruzi infected in BALB/c albino mouse acute chagas disease model assessed as inhibition of parasitemia at 25 mg/kg, ip administered on day 7 to 12 post-infection measured every 2 days until day 40 […] relative to control; assay type: functional; conditions: route intraperitoneal
# Trypanosoma cruzi [6] = assay: Trypanocidal activity against metacyclic trypomastigote stage of Trypanosoma cruzi infected in BALB/c albino mouse acute chagas disease model assessed as reduction of parasite burden at 25 mg/kg, ip administered on day 7 to 12 post-infection measured on day 14 by ELISA; assay type: functional, organism-based; parameters: dose 25 mg/kg
# Trypanosoma cruzi [7] = assay: (§1) Antitrypanosomal activity against trypomastigote stage of Trypanosoma cruzi IRHOD/CO/2008/SN3 assessed as reduction of trypomastigote number per mililiter of culture medium at IC25 preincubated for 12 hrs followed by compound washout measured every 48 hrs for 10 days by Neubauer hemocytometric chamber analysis relative to control; assay type: functional
# Trypanosoma cruzi [8] = assay: as §1, with “amastigote” for “trypomastigote”, “IRHOD/CO/2008/SN3 infected in African green monkey Vero cells” for “IRHOD/CO/2008/SN3”, “cell” for “mililiter of culture medium”; assay type: functional
# Trypanosoma cruzi [9] = assay: Antitrypanosomal activity against amastigote stage of Trypanosoma cruzi IRHOD/CO/2008/SN3 infected in African green monkey Vero cells assessed as decrease in infection rate at IC25 preincubated for 12 hrs followed by compound washout measured every 48 hrs for 10 days by Neubauer hemocytometric chamber analysis relative to control; assay type: functional
# Mus musculus [10] = assay: Toxicity in BALB/c albino mouse infected with blood trypomastigote stage of Trypanosoma cruzi assessed as change in alkaline phosphatase level in serum at 25 mg/kg, ip administered on day 7 to 12 post-infection measured after day 120 relative to control; assay type: organism-based; parameters: dose 25 mg/kg, route intraperitoneal; conditions: in vivo
# Mus musculus [11] = assay: Toxicity in BALB/c albino mouse infected with blood trypomastigote stage of Trypanosoma cruzi assessed as change in ALT/GPT level in serum at 25 mg/kg, ip administered on day 7 to 12 post-infection measured after day 120 relative to control; assay type: organism-based; parameters: dose 25 mg/kg, route intraperitoneal; conditions: in vivo
# Mus musculus [12] = assay: Toxicity in BALB/c albino mouse infected with blood trypomastigote stage of Trypanosoma cruzi assessed as increase in AST/GOT level in serum at 25 mg/kg, ip administered on day 7 to 12 post-infection measured after day 120 relative to control; assay type: organism-based; parameters: dose 25 mg/kg, route intraperitoneal; conditions: in vivo
# Mus musculus [13] = assay: Toxicity in BALB/c albino mouse infected with blood trypomastigote stage of Trypanosoma cruzi assessed as increase in total bilirubin level in serum at 25 mg/kg, ip administered on day 7 to 12 post-infection measured after day 120 relative to control; assay type: organism-based; parameters: dose 25 mg/kg, route intraperitoneal; conditions: in vivo
# Mus musculus [14] = assay: Toxicity in BALB/c albino mouse infected with blood trypomastigote stage of Trypanosoma cruzi assessed as increase in LDH level in serum at 25 mg/kg, ip administered on day 7 to 12 post-infection measured after day 120 relative to control; assay type: organism-based; parameters: dose 25 mg/kg, route intraperitoneal; conditions: in vivo
# Mus musculus [15] = assay: Toxicity in BALB/c albino mouse infected with blood trypomastigote stage of Trypanosoma cruzi assessed as change in creatinephophokinase-MB level in serum at 25 mg/kg, ip administered on day 7 to 12 post-infection measured after day 120 relative to control; assay type: organism-based; parameters: dose 25 mg/kg, route intraperitoneal; conditions: in vivo
# Mus musculus [16] = assay: Toxicity in BALB/c albino mouse infected with blood trypomastigote stage of Trypanosoma cruzi assessed as increase in uric acid level in serum at 25 mg/kg, ip administered on day 7 to 12 post-infection measured after day 120 relative to control; assay type: organism-based; parameters: dose 25 mg/kg, route intraperitoneal; conditions: in vivo
# Mus musculus [17] = assay: Toxicity in BALB/c albino mouse infected with blood trypomastigote stage of Trypanosoma cruzi assessed as change in urea level in serum at 25 mg/kg, ip administered on day 7 to 12 post-infection measured after day 120 relative to control; assay type: organism-based; parameters: dose 25 mg/kg, route intraperitoneal; conditions: in vivo
# Mus musculus [18] = assay: Toxicity in BALB/c albino mouse assessed as mortality at 25 mg/kg, ip administered for 5 days; assay type: organism-based; parameters: dose 25 mg/kg, route intraperitoneal; conditions: in vivo, 120 h
# Trypanosoma cruzi [19] = assay: Antitrypanosomal activity against epimastigote stage of Trypanosoma cruzi IRHOD/CO/2008/SN3 assessed as formation of electron-dense vacuoles at IC25 after 72 hrs by TEM analysis; assay type: functional, organism-based
# Trypanosoma cruzi [20] = assay: Antitrypanosomal activity against epimastigote stage of Trypanosoma cruzi IRHOD/CO/2008/SN3 assessed as disappearance of microtubular structure at IC25 after 72 hrs by TEM analysis; assay type: functional, organism-based
# Trypanosoma cruzi [21] = assay: Antitrypanosomal activity against epimastigote stage of Trypanosoma cruzi IRHOD/CO/2008/SN3 assessed as partially scalloped parasite outer membrane at IC25 after 72 hrs by TEM analysis; assay type: functional, organism-based
# Trypanosoma cruzi [22] = assay: Antitrypanosomal activity against epimastigote stage of Trypanosoma cruzi IRHOD/CO/2008/SN3 assessed as discontinuation of parasite outer membrane at IC25 after 72 hrs by TEM analysis; assay type: functional, organism-based
# Trypanosoma cruzi [23] = assay: Antitrypanosomal activity against epimastigote stage of Trypanosoma cruzi IRHOD/CO/2008/SN3 assessed as mitochondrial swelling with rupture of membrane at IC25 after 72 hrs by TEM analysis; assay type: functional, organism-based
# Trypanosoma cruzi [24] = assay: Antitrypanosomal activity against epimastigote stage of Trypanosoma cruzi IRHOD/CO/2008/SN3 assessed as change in excreted succinate level at IC25 after 96 hrs by 1H NMR analysis relative to control; assay type: functional
# Trypanosoma cruzi [25] = assay: Antitrypanosomal activity against epimastigote stage of Trypanosoma cruzi IRHOD/CO/2008/SN3 assessed as change in excreted pyruvate level at IC25 after 96 hrs by 1H NMR analysis relative to control; assay type: functional
# Trypanosoma cruzi [26] = assay: Antitrypanosomal activity against epimastigote stage of Trypanosoma cruzi IRHOD/CO/2008/SN3 assessed as change in excreted acetate level at IC25 after 96 hrs by 1H NMR analysis relative to control; assay type: functional
# Trypanosoma cruzi [27] = assay: Antitrypanosomal activity against epimastigote stage of Trypanosoma cruzi IRHOD/CO/2008/SN3 assessed as change in excreted alanine level at IC25 after 96 hrs by 1H NMR analysis relative to control; assay type: functional
# Trypanosoma cruzi [28] = assay: Antitrypanosomal activity against epimastigote stage of Trypanosoma cruzi IRHOD/CO/2008/SN3 assessed as change in excreted lactate level at IC25 after 96 hrs by 1H NMR analysis relative to control; assay type: functional
smiles,measurement,setting,value
C[N+](C)(C)CCNc1c(NCc2ccccc2)c(=O)c1=O,selectivity ratio,[1],1.9
same,selectivity ratio,[2],1.2
same,IC50,Vero,74.2 µM
same,IC50,Trypanosoma cruzi [3],39.2 µM
same,IC50,Trypanosoma cruzi [4],60.8 µM
CCOC(=O)c1ccc(Nc2c(O)c(=O)c2=O)cc1,selectivity ratio,[1],1.2
same,selectivity ratio,[2],0.8
same,IC50,Vero,21.5 µM
same,IC50,Trypanosoma cruzi [3],18.4 µM
same,IC50,Trypanosoma cruzi [4],26.3 µM
CCCCNc1c(NCCCC(=O)O)c(=O)c1=O,selectivity ratio,[1],0.3
same,selectivity ratio,[2],1.2
same,IC50,Vero,21.6 µM
same,IC50,Trypanosoma cruzi [3],66.9 µM
same,IC50,Trypanosoma cruzi [4],17.3 µM
O=C(Cn1ccnc1[N+](=O)[O-])NCc1ccccc1 [BENZNIDAZOLE],inhibition in vivo at 25 mg/kg,Trypanosoma cruzi [5],26%
same,Activity,Trypanosoma cruzi [6],Active
same,inhibition (INH),Trypanosoma cruzi [7],21%
same,inhibition (INH),Trypanosoma cruzi [8],15%
same,inhibition (INH),Trypanosoma cruzi [9],20%
C[N+](C)(C)CCNc1c(NCc2cccc(CNc3c(NCC[N+](C)(C)C)c(=O)c3=O)c2)c(=O)c1=O,selectivity ratio,[1],1.7
same,selectivity ratio,[2],0.6
same,IC50,Vero,73.1 µM
same,IC50,Trypanosoma cruzi [3],43.9 µM
same,IC50,Trypanosoma cruzi [4],119 µM
CCCCNc1c(NCCN(C)C)c(=O)c1=O,Activity,Mus musculus [10],< 10%
same,Activity,Mus musculus [11],< 10%
same,Activity,Mus musculus [12],40%
same,Activity,Mus musculus [13],40%
same,Activity,Mus musculus [14],40%
same,Activity,Mus musculus [15],< 10%
same,Activity,Mus musculus [16],30%
same,Activity,Mus musculus [17],< 10%
same,inhibition in vivo at 25 mg/kg,Trypanosoma cruzi [5],31%
same,Activity,Trypanosoma cruzi [6],Active
same,Activity,Mus musculus [18],Non-toxic
same,inhibition (INH),Trypanosoma cruzi [7],18%
same,inhibition (INH),Trypanosoma cruzi [8],35%
same,inhibition (INH),Trypanosoma cruzi [9],35%
same,selectivity ratio,[1],28
same,selectivity ratio,[2],24.8
same,IC50,Vero,260 µM
same,IC50,Trypanosoma cruzi [3],9.3 µM
same,IC50,Trypanosoma cruzi [4],10.5 µM
same,Activity,Trypanosoma cruzi [19],Active
same,Activity,Trypanosoma cruzi [20],Active
same,Activity,Trypanosoma cruzi [21],Active
same,Activity,Trypanosoma cruzi [22],Active
same,Activity,Trypanosoma cruzi [23],Active
same,Activity,Trypanosoma cruzi [24],-28.3%
same,Activity,Trypanosoma cruzi [25],-11.1%
same,Activity,Trypanosoma cruzi [26],-18.6%
same,Activity,Trypanosoma cruzi [27],-11.1%
same,Activity,Trypanosoma cruzi [28],-23.9%
CN(C)CCCNc1c(NCCCNc2c(NCCCN(C)C)c(=O)c2=O)c(=O)c1=O,selectivity ratio,[1],0.2
same,selectivity ratio,[2],0.1
same,IC50,Vero,11.4 µM
same,IC50,Trypanosoma cruzi [3],46 µM
same,IC50,Trypanosoma cruzi [4],96.2 µM
CCCCCCCCCCCCCCCCNc1c(NCCN(C)C)c(=O)c1=O,selectivity ratio,[1],3.4
same,selectivity ratio,[2],1.8
same,IC50,Vero,90.1 µM
same,IC50,Trypanosoma cruzi [3],22.4 µM
same,IC50,Trypanosoma cruzi [4],49.8 µM
